{"source": "patent US20140080795A1", "about": "“NRF2 Deficiency Influences Susceptibility to Steroid Resistance via HDAC2 Reduction” (University of Rochester, priority 2010, published 2014)", "key": {"KC": {"system": "KC", "assay": "LPS-induced lung inflammation in mice: KC levels in lung homogenates by ELISA", "assay_type": "in vivo, mouse"}, "MCP-1": {"system": "MCP-1", "assay": "LPS-induced lung inflammation in mice: MCP-1 levels in lung tissue by ELISA", "assay_type": "in vivo, mouse", "details": "Nrf2-/- mice, budesonide 1 and 3 mg/kg pretreatment", "procedure": "Briefly, age-matched WT, Nrf2−/− and HDAC2−/− were exposed to aerosolized Escherichia coli LPS (1 mg/ml) for 8 minutes. Aerosolized saline-exposed mice were used as controls, and animals were sacrificed at 24 h post last exposure. […] Monocyte chemotactic protein 1 (MCP-1) levels were measured from mouse lung soluble protein by enzyme-linked immunosorbent assay (ELISA) with the duo-antibody kit (R & D Systems). Results were normalized to protein concentration per sample. […] Briefly, age-matched wild-type, Nrf2−/− and HDAC2−/− were exposed to aerosolized Escherichia coli LPS diluted to 1 mg/ml for 8 minutes. Aerosolized saline-exposed mice were used as controls and animals were sacrificed at 24 h post last exposure (Yao et al., Am J Respir Cell Mol Biol 39: 7-18 (2008)). […] Monocyte chemotactic protein 1 (MCP-1) levels were measured from mouse lung soluble protein by enzyme-linked immunosorbent assay (ELISA) with the MCP-1 duo-antibody kit (R & D Systems). Results were normalized to protein concentration per sample."}}, "data": [{"smiles": "CCCC1O[C@@H]2C[C@H]3[C@@H]4CCC5=CC(=O)C=C[C@]5(C)[C@H]4[C@@H](O)C[C@]3(C)[C@]2(C(=O)CO)O1", "note": "(stereo partly drawn) [budesonide]", "values": [{"measurement": "KC release in lung", "setting": "KC; HDAC2-/- mice, budesonide 3 mg/kg pretreatment", "value": "no significant effect"}, {"measurement": "LPS-induced release of KC in lung", "setting": "KC; Nrf2-/- mice, budesonide 1 and 3 mg/kg pretreatment", "value": "no inhibitory effect"}, {"measurement": "LPS-induced release of MCP-1 in lung", "setting": "MCP-1", "value": "no inhibitory effect"}]}]}
